# Experimental data: patent US20020004209A1, “Use of SLIM3 for binding to molecules” (Schering Aktiengesellschaft Patents, priority 1999, published 2002)
# Molecular target: T1, androgen receptor (Homo sapiens, UniProt P10275)
# T1 construct: expressed in transfected cells; host or cells: 293 cells
# T1 sequence (P10275 1-920): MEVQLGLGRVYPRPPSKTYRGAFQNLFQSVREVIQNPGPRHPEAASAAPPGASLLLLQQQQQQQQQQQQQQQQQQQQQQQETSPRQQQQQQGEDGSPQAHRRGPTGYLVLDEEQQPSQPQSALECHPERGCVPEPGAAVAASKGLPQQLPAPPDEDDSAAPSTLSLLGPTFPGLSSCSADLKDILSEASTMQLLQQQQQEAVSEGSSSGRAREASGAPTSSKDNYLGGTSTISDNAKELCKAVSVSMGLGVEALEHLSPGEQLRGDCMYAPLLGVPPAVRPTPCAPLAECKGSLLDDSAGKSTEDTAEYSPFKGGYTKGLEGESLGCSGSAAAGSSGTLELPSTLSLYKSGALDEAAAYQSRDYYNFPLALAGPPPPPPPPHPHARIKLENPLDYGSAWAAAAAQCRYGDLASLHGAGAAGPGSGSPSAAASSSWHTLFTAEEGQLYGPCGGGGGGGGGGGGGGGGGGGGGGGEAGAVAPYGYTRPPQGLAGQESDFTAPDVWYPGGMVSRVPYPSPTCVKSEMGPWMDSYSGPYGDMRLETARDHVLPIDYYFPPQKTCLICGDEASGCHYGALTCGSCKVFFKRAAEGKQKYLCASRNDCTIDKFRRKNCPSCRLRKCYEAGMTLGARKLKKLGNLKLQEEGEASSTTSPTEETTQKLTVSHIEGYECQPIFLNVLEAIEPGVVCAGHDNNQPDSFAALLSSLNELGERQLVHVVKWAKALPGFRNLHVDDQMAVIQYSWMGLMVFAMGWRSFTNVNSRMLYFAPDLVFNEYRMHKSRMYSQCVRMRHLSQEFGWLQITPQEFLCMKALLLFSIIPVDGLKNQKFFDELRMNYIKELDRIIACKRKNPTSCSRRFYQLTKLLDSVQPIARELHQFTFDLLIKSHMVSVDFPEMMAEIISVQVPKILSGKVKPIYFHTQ
# T1 sequence (Q14192 1-279 partner): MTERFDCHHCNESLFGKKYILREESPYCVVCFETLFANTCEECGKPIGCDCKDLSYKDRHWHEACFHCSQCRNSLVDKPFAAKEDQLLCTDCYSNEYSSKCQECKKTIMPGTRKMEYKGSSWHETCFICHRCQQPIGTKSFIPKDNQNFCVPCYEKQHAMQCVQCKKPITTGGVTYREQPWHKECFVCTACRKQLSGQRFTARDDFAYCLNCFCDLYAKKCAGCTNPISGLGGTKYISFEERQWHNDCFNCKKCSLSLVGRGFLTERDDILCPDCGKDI
# Assay: androgen receptor co-activation, MMTV-LUC or proteasin-Luc reporter, transient transfection
# Assay type: cell-based
# Conditions: 293 cells; androgen receptor-expression-plasmid co-transfected
compound,measurement,value
"C[C@]1(O)CC[C@H]2[C@@H]3CCC4=CC(=O)CCC4=C3C=C[C@@]21C [R1881, reference compound]",transactivation of the reporter gene,transactivated
